Experimental data from patent publication US20250214978A1, “AT2R AGONIST” (WUHAN HUMANWELL INNOVATIVE DRUG RESEARCH AND DEVELOPMENT …, priority 2022, published 2025).
Where two headings read alike, the source gives them in different places.

Assays:
[1] = target: CYP2C8 (Homo sapiens (Human), UniProt P10632); experiment: CYP inhibition assay in mixed human liver microsomes; assay type: in vitro ADME; conditions: mixed (pooled) human liver microsomes, read-out: Inhibition rate % CYP2C8
Procedure: (§1) The inhibitory effects of the compounds on seven enzymes, i.e., CYP1A2, CYP2C9, CYP2C19, CYP2D6, CYP3A4 (midazolam), CYP2B6, and CYP2C8, were evaluated at a concentration of 10 μM. Mixed human liver microsomes, which were previously stored in a −80° C. refrigerator before use, were taken out and thawed in a water bath at 37° C. before use, and placed on ice for further operation. 100 μL of microsome working solution was taken, and added with 2 μL of test product or positive inhibitor working solution. 2 μL of solvent was added to the solvent control. The mixture was pre-incubated in a water bath at 37° C. for 10 minutes. After preincubation, 98 μL of NADPH regeneration solution was added to all samples to initiate the reaction. Then, the samples were put back into the water bath and incubated for a period of time. The reaction was quenched with 200 μL of stop solution. The plate was centrifuged at 3,220 g for 10 minutes, 100 μL of supernatant was transferred, and 100 μL of water was added and mixed well to the assay plate for LC/MS/MS analysis.

[2] = target: CYP2D6 (Homo sapiens (Human), UniProt P10635); experiment: as above; assay type: in vitro ADME; conditions: mixed (pooled) human liver microsomes, read-out: Inhibition rate % CYP2D6
Procedure: as §1

[3] = target: CYP2C19 (Homo sapiens (Human), UniProt P33261); experiment: as above; assay type: in vitro ADME; conditions: mixed (pooled) human liver microsomes, read-out: Inhibition rate % CYP2C19
Procedure: as §1

[4] = target: CYP3A4 (Homo sapiens (Human), UniProt P08684); experiment: as above; assay type: in vitro ADME; conditions: mixed (pooled) human liver microsomes, probe midazolam, read-out: Inhibition rate % CYP3A4 (midazolam)
Procedure: as §1

[5] = target: CYP2C9 (Homo sapiens (Human), UniProt P11712); experiment: as above; assay type: in vitro ADME; conditions: mixed (pooled) human liver microsomes, read-out: Inhibition rate % CYP2C9
Procedure: as §1

[6] = target: CYP2B6 (Homo sapiens (Human), UniProt P20813); experiment: as above; assay type: in vitro ADME; conditions: mixed (pooled) human liver microsomes, read-out: Inhibition rate % CYP2B6
Procedure: as §1

[7] = target: CYP1A2 (Homo sapiens (Human), UniProt P05177); experiment: as above; assay type: in vitro ADME
Procedure: as §1

[8] = target: AT2R (Homo sapiens (Human), UniProt P50052); experiment: Binding assay of compounds to AT2R (Tag-lite HTRF ligand binding kit); conditions: 1 hour incubation at room temperature
Procedure: The assay was performed in accordance with the instruction manual of Angiotensin AT2 Receptor Ligand Binding Assay Kit (#C1TT1AT2, Cisbio). First, a compound stock solution (10 mM) was diluted in a gradient at a 5× dilution ratio (including 10 concentrations, each with two replicates). 160 nL of compounds at different concentrations was added to a 384-well plate. 40 μL of 1×TLB was added to each well, and the mixture was shaken at room temperature for 15 minutes. 15 mL centrifuge tube added with 5 mL of 1×TLB was prepared in advance. The frozen labeled cells were thawed in a water bath at 37° C. (for 1 to 2 minutes), and the thawed cells were quickly transferred to the above 15 mL centrifuge tube. The mixture was mixed well and centrifuged at 1,000 g at room temperature for 5 minutes. The supernatant was removed, and the cells were resuspended by adding 2.7 mL 1×TLB. A new 384-well plate was taken, and 10 μL of mixed cells were added into the corresponding wells according to the assay design. 5 μL of 4× compound solution and 5 μL of 4× Tag-lite red fluorescent labeled ligand were added to each well. After incubation at room temperature for 1 hour, data were read using EnVision with an HTRF mode. The excitation light intensities at 665 nM and 615 nM in each well were read respectively, and the ratio was calculated (Ratio=A665nMIB615 nM). The IC50 value was calculated by means of GraphPad Prism8 software, where X represents logarithmic value of compound concentration; and Y represents ratio of A665 nM/B615 nM.

[9] = Free plasma protein binding (PPB) assay, equilibrium dialysis; assay type: in vitro ADME; conditions: dialysis 6 hours at 37° C.
Procedure: The dried dialysis membrane was soaked in ultrapure water for 1 hour, then soaked in 20% ethanol for 20 minutes, and then rinsed with ultrapure water for 2 to 3 times. Finally, the dried dialysis membrane was soaked in ultrapure water for 20 minutes for later use. The frozen plasma was thawed in a water bath at 37° C. for about 20 minutes. pH value of the plasma was measured after thawing was complete, and was adjusted to 7.4 with 1% phosphoric acid solution or 0.1M sodium hydroxide solution. […] The pretreated dialysis membrane was assembled into the dialysis plate according to product instructions, and 100 μL of receiving solution (100 mM phosphate buffer solution plus 0.002% Tween 80) was added to one side of the permeable membrane in each dialysis well. 20 μL of each of the final solution of the test compound and the final solution of the control compound were taken in a 96-well sample plate, two duplicate samples were made, and T0 sample was obtained, which was stored in a −20° C. refrigerator. Another 100 μL of each of the above-mentioned final solutions were taken to the other side of the membrane in the dialysis device, two duplicate samples were made, and incubated at 37° C. with constant shaking for 6 hours. After 6 hours of incubation, 20 μL of each of the dialyzed receiving solution and the administered plasma were taken, two duplicate samples were made, and sample A and sample B were obtained. Corresponding blank plasma or receiving solution of corresponding volume were added to sample B and sample A, respectively, allowing the volume ratio of plasma to buffer in each sample well to be 1:1. 300 μL of sample-containing internal standard acetonitrile solution was added to all the sample wells. The mixture was mixed well, and centrifuged at 5,500×g for 10 minutes. 150 μL of corresponding ultrapure water was added to the corresponding sample wells of the 96-well sample plate. 150 μL of the supernatant was taken into the sample wells, and mixed well. Then, LC/MS/MS analysis was performed. The calculation formula of fu is: […]
where: CR: peak area ratio measured in the receiving chamber well CD: peak area ratio measured in the supply chamber well.

[10] = Liver microsome stability assay; assay type: in vitro ADME; conditions: dog; Canine liver microsomes; read-out: T1/2 (min) Canine
[11] = Liver microsome stability assay; assay type: in vitro ADME; conditions: Rat liver microsomes; read-out: T1/2 (min) Rat
[12] = Liver microsome stability assay; assay type: in vitro ADME; conditions: Mouse liver microsomes; read-out: T1/2 (min) Mouse
[13] = Liver microsome stability assay; assay type: in vitro ADME; conditions: Human liver microsomes, NADPH, 37° C.; read-out: T1/2 (min) Human
Procedure: The human liver microsome stability assay was performed by co-incubating the compound with human liver microsomes in vitro. The test compounds were first prepared as 10 mM stock solutions in DMSO solvent, and then diluted to 0.5 mM with acetonitrile. Human liver microsomes (Corning) were diluted with PBS to prepare a microsome/buffer solution, and this solution was used to dilute 0.5 mM of the compound to prepare a working solution. In the working solution, a concentration of the compound was 1.5 μM and a concentration of the human liver microsome was 0.75 mg/ml. A deep-well plate was taken, 30 μL of working solution was added to each well of the plate, and then 15 μL of pre-heated NADPH solution (6 mM) was added to start the reaction. The mixture was incubated at 37° C. 135 μL of acetonitrile was added to the corresponding wells to stop the reaction at 0 minute, 5 minutes, 15 minutes, 30 minute, and 45 minutes of incubation. Subsequent to the stop of the reaction by means of acetonitrile at the last time point of 45 minute, the plate was vortexed for 10 minutes (600 rpm/min) and then centrifuged for 15 minutes. […] The peak area ratios of the compound at 5 minutes, 15 minutes, 30 minutes, and 45 minutes were compared with the peak area ratio at 0 minute, and the remaining percentage of the compound at each time point was calculated. T1/2 was calculated using Graphpad8 software.

[14] = dog, pH 7.4, Canine plasma, read-out: fu % Canine
[15] = pH 7.4, Human plasma, read-out: fu % Human
[16] = pH 7.4, Mouse plasma, read-out: fu % Mouse
[17] = pH 7.4, Rat plasma, read-out: fu % Rat

CYP3A4, sequence (P08684 whole entry): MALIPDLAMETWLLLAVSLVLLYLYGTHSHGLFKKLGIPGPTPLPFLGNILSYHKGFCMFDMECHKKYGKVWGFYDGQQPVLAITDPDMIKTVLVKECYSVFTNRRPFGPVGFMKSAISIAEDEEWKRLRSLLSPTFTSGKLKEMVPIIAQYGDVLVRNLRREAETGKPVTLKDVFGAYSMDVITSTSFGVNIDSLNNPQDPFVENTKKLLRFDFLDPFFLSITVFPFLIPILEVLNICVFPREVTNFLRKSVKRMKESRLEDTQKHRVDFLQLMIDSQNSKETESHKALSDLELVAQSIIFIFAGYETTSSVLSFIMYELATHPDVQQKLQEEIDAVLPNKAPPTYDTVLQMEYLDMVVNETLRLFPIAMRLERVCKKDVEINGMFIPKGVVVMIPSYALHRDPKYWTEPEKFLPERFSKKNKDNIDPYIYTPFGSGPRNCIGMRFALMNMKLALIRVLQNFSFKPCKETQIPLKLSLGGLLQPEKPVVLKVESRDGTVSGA
AT2R, sequence (P50052 whole entry): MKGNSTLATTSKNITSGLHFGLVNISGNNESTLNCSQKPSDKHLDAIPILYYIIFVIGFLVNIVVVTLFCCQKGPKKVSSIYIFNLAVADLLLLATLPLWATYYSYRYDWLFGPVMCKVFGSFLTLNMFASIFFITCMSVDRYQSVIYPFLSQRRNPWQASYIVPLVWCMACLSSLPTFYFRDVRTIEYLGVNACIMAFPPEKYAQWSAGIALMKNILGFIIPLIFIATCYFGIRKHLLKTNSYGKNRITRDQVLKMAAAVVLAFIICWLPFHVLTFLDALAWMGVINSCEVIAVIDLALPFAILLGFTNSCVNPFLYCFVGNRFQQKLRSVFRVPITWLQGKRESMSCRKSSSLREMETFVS
CYP1A2, sequence (P05177 whole entry): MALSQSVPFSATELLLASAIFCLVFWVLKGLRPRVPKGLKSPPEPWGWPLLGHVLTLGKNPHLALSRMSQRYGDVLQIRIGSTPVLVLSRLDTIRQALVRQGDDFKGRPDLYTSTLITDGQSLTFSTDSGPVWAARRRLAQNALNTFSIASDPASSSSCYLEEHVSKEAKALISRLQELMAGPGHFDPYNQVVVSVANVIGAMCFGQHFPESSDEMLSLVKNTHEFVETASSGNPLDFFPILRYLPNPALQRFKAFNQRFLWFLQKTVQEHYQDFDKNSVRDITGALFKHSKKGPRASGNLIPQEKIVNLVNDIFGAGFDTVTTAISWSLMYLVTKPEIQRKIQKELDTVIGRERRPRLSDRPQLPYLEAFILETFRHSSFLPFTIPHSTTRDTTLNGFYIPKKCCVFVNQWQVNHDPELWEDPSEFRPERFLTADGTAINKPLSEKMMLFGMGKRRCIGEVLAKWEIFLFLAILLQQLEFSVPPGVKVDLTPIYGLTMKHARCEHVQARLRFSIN
CYP2C8, sequence (P10632 whole entry): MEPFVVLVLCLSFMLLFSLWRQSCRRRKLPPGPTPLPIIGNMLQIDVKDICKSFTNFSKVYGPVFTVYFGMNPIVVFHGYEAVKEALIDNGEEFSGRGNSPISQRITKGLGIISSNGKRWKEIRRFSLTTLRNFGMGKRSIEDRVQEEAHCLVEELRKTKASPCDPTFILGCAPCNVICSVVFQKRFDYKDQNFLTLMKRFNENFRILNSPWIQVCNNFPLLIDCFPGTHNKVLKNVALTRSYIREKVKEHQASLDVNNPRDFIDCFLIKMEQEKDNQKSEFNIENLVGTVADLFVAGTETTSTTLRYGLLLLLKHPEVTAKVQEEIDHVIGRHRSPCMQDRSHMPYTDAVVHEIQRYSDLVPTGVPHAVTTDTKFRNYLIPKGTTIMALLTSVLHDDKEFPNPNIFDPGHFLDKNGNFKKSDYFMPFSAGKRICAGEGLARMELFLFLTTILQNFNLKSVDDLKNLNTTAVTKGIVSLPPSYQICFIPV
CYP2C19, sequence (P33261 whole entry): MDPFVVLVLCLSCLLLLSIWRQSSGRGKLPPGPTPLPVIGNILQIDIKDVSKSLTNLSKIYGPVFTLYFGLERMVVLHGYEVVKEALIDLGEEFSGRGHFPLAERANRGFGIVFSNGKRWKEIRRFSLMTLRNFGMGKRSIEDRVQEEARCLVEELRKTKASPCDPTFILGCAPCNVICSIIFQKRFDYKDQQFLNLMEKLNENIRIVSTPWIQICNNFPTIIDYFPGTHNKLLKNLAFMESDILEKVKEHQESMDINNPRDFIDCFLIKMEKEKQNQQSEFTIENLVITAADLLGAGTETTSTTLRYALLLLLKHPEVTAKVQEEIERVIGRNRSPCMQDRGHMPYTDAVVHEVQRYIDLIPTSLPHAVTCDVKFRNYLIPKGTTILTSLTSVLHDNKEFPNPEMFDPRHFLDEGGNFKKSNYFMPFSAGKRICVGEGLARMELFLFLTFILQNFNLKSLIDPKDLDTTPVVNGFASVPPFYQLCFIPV
CYP2C9, sequence (P11712 whole entry): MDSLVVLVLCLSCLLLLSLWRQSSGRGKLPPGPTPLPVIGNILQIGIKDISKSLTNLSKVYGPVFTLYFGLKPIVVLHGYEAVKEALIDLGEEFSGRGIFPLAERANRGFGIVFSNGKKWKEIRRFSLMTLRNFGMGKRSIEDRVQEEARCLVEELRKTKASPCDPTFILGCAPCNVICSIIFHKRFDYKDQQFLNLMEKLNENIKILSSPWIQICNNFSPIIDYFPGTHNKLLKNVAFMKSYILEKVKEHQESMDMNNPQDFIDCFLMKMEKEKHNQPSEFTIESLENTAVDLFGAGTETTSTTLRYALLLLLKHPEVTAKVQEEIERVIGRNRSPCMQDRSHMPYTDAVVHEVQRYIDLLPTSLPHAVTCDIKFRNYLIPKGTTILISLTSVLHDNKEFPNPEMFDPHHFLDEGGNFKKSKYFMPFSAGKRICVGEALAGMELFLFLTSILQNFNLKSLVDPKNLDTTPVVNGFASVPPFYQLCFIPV
CYP2D6, sequence (P10635 whole entry): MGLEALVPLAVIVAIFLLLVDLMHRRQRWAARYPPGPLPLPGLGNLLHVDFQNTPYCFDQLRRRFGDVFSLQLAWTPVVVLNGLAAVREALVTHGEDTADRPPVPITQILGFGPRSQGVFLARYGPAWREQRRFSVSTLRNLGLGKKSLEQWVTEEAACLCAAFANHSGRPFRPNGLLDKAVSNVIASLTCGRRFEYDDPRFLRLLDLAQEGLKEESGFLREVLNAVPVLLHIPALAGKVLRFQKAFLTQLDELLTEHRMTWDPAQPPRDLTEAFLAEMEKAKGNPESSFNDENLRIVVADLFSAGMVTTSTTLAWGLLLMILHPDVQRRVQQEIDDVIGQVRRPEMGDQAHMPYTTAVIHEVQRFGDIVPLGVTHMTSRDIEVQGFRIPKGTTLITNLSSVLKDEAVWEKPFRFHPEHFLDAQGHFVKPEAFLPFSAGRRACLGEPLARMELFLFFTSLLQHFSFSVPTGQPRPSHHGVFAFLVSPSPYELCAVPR
CYP2B6, sequence (P20813 whole entry): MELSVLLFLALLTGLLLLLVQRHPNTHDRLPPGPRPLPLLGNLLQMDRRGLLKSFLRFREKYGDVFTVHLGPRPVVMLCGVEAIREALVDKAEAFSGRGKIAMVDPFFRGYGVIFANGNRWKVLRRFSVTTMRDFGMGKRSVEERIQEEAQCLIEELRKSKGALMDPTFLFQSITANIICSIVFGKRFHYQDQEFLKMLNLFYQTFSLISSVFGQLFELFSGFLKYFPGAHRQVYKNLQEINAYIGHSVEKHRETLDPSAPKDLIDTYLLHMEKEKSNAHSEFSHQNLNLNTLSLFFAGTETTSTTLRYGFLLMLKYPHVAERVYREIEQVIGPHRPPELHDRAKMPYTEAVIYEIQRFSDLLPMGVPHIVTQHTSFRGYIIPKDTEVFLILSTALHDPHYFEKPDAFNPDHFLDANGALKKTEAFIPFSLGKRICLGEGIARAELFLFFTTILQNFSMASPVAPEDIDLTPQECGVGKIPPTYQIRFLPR

SMILES | inhibition at 10 µM [1] [%] | inhibition at 10 µM [2] [%] | inhibition at 10 µM [3] [%] | inhibition at 10 µM [4] [%] | inhibition at 10 µM [5] [%] | inhibition at 10 µM [6] [%] | inhibition at 10 µM [7] [%] | IC50 [8] [nM] | fraction unbound at 6 h, 1 μM [9, 14] | fraction unbound at 6 h, 1 μM [9, 15] | fraction unbound at 6 h, 1 μM [9, 16] | fraction unbound at 6 h, 1 μM [9, 17] | half-life at 1 μM [10] [min] | half-life at 1 μM [11] [min] | half-life at 1 μM [12] [min] | half-life at 1 μM [13] [min]
COC(=O)NS(=O)(=O)c1sc(CC(C)C)cc1-c1ccc(Cn2ccnc2C)cc1C [Compound I-11, Methyl (5-isobutyl-3-(2-methyl-4-((2-methyl-1H-imidazol-1-yl)methyl)phenyl)thiophen-2-yl)sulfonylcarbamate] | 12.6 | 1.97 | 11 | 13.4 | 28.3 | 27.6 | 0 | 1.51 | 0.0185 | 0.0039 | 0.0121 | 0.0097 |  |  |  | 
CCCCOC(=O)NS(=O)(=O)c1sc(CC(C)C)cc1-c1ccc(Cn2ccnc2C)c(C#N)c1 [Compound I-12, Butyl ((3-(3-cyano-4-((2-methyl-1H-imidazol-1-yl)methyl)phenyl)-5-isobutylthiophen-2-yl)sulfonyl)carbamate] | 39.5 | 10.4 | 30.2 | 21.1 | 45.8 | 31.6 | 4.18 | 1.35 |  |  |  |  |  |  |  | 
COC(=O)NS(=O)(=O)c1sc(CC(C)C)cc1-c1ccc(Cn2ccnc2C(C)(C)C)c(C#N)c1 [Compound I-13, Methyl ((3-(4-((2-(tert-butyl)-1H-imidazol-1-yl)methyl)-3-cyanophenyl)-5-isobutylthiophen-2-yl)sulfonyl)carbamate] | 82.7 | 6.5 | 11.7 | 0 | 20.2 | 18.3 | 0.54 | 1.72 | 0.0116 |  | 0.0211 | 0.0043 |  |  |  | 
CCc1nccn1Cc1ccc(-c2cc(CC(C)C)sc2S(=O)(=O)NC(=O)OC)cc1C#N [Compound I-14, Methyl ((3-(3-cyano-4-((2-ethyl-1H-imidazol-1-yl)methyl)phenyl)-5-isobutylthiophen-2-yl)sulfonyl)carbamate] | 50.6 | 11.4 | 21.7 | 0 | 32.8 | 16.9 | 0 | 1.68 |  |  | 0.0427 |  |  |  |  | 
COC(=O)NS(=O)(=O)c1sc(CC(C)C)c(C)c1-c1ccc(Cn2ccnc2C)cc1 [Compound I-16, Methyl (5-isobutyl-4-methyl-3-(4-((2-methyl-1H-imidazol-1-yl)methyl)phenyl)thiophen-2-yl)sulfonylcarbamate] | 33.6 | 9.54 | 35.3 | 6.78 | 46.8 | 11.1 | 25 | 2.68 | 0.0349 | 0.0126 |  | 0.0109 | 578 | 83.5 | 1730 | 239
